Series [1] in a line: Half life period after 1 hour in Rat liver microsomes at 37 degree C an incubation concentration of 10 uM. (In general: Liver microsomes are vesicles of endoplasmic reticulum, rich in cytochrome P450 enzymes.)
Series [2] in a line: Inhibitory concentration required for Metabolic stability after 1 hour at an incubation concentration of 10 uM. It counts as ADME.
A short description of series [3]: Half life period after 1 hour in human liver microsomes at 37 degree C an incubation concentration of 10 uM.
Series [4] in a line: Metabolic stability after 1 hour in human liver microsomes at 37 degree C an incubation concentration of 10 uM.
Series [5] can be described thus: Metabolic stability after 1 hour in Rat liver microsomes at 37 degree C an incubation concentration of 10 uM.

pIC50: −log10 of the molar value.

In the case of `O=C(CN1CCC(N2C(=O)OCc3c(F)cccc32)CC1)Nc1ccc2[nH]c3ccccc3c2c1`, the half-life (in general, the time needed for the level to fall by half in the phase considered) at 1 h, 10 µM in series [1] (liver microsomes) came to 19.3 min; in series [3] (liver microsomes) it was 95 min. Moreover, in series [2], the pIC50 (commonly −log10 of the IC50, conventionally taken in molar units) was 6.34.
On to `O=C(CN1CCC(N2C(=O)OCc3ccc(Cl)cc32)CC1)Nc1ccc2sc3ccccc3c2c1`, for which the values for the half-life at 1 h, 10 µM in series [1] (microsomes) and in series [3] (microsomes) were 32.7 min and 28.4 min, respectively. The share remaining (as a rule, the share of the starting amount still present when the sample was taken) at 1 h, 10 µM in series [4] was found to be 19.6%; in series [5] it was 24%. In series [2], this compound showed a pIC50 of 6.87.

The values above are taken from ChEMBL document CHEMBL1142769, “A preliminary study of the metabolic stability of a series of benzoxazinone derivatives as potent neuropeptide Y5 antagonists” (Bioorg Med Chem Lett, 2005).
